US20200255828A1, “METHODS AND COMPOSITIONS FOR ALTERING FUNCTION AND STRUCTURE OF CHROMATIN LOOPS AND/OR DOMAINS” (THE BROAD INSTITUTE, INC., priority 2017, published 2020)

What was measured:
[1] = tested on: CTCF; test: ChIP-Seq for CTCF with and without auxin; type: cell-based, human
Description: ChIP-Seq for H3K27Ac, H3K4me1, H3K4me3, H3K36me3, H3K27me3, H3K9me3, H4K16Ac, H4K20me3, H3K79me2, and H2.AZ was performed using a native ChIP-Seq protocol. Chromatin from untreated HCT-116 RAD21-mAC cells or cells treated for 6 hours with 500 uM IAA was digested with Mnase (Sigma) in digestion buffer (50 mM Tris-HCl, pH7.6, 1 mM CaCl2), 0.2% Triton X-100, butyrate 5 mM) for 5′ at 37° C. and dialyzed against RIPA buffer for 2 hrs at 4° C. Five microgram of respective antibody was incubated with 40 μl of Dynabeads Protein A (or G) for 40 min at room temperature. Antibody-bound beads were added to 500 μl of sonicated or Mnase-digested chromatin, incubated at 4° C. overnight, and washed twice with RIPA buffer, twice with RIPA buffer containing 0.3 M NaCl, twice with LiCl buffer (0.25 M LiCl, 0.5% Igepal-630, 0.5% sodium deoxycholate), once with TE (pH 8.0) plus 0.2% Triton X-100, and once with TE (pH 8.0). ChIP DNA was purified by phenol-chloroform extraction followed by ethanol precipitation. Libraries were prepped for Illumina sequencing and 50 bp single-end reads were sequenced on a HiSeq2000 or 2500 (Illumina). Applicants also performed ChIP-Seq for RAD21 and CTCF following the same protocol as above, except that cells were fixed with 1% formaldehyde for 10 minutes at 37° C. and fixation was quenched by the addition of glycine to a final concentration of 125 mM for 10 minutes. The fixed cells were sonicated using a Branson sonifier at amplitude 35%, 12 cycles of 20 seconds of sonication and 30 seconds of pause. Antibody was added to the sonicated chromatin as above and the samples were further processed as above. […]
All ChIP-Seq data was aligned to hg19 with BWA (Li and Durbin, 2010) (Li and Durbin, 2010) (Li and Durbin, 2010), deduplicated using PicardTools, and analyzed with MACS 2.0 (Liu, 2014). […]
Applicants calculated average signal over 5 kb bins across the entire genome and correlated signal between ChIP-Seq experiments before and after auxin treatment for each of CTCF, H3K27me3, H3K9me3, H3K4me1, H3K4me3 and H3K27Ac.

[2] = tested on: HCT-116 RAD21-mAC cells; test: 3D-APA of higher-order Hi-C contacts between cohesin-independent loop anchors; type: cell-based, human; conditions: auxin-treated data, 131 intrachromosomal trios; none in untreated
From the text: To probe this question, Applicants examined concatemers—that is, Hi-C reads which bring together 3 or more loci, and indicate that the loci in question were simultaneously co-located in a particular cell during the Hi-C experiment. Applicants identified 57 million unique “triples,” which bring together 3 loci; 32 million unique quadruples, and 130 thousand quintuples (FIG. 5B, see Methods). Instead of a 2-dimensional heatmap, concatemers are naturally represented as an n-dimensional matrix, or tensor, showing the collision frequency (i.e. the frequency of simultaneous physical contact) between any set of n loci in the genome (FIG. 5C). Hubs involving n loci manifest in the n-dimensional contact tensor as peaks in collision frequency with respect to the local n-dimensional neighborhood. […]
Analysis of higher order contacts. […] The Juicer pipeline (Durand, et al, 2016b) separately outputs abnormal chimeric read pairs (i.e. read pairs that map to more than 2 loci). Applicants combined all of the data from untreated RAD21-mAC cells and all our data from treated RAD21-mAC cells (unsynchronized and synchronized/arrested), parsed the chimeric abnormal reads and deduped them (using the same deduping procedure used in Juicer, only applied to three, four or five positions, rather than just two), retaining unique reads that mapped to three or more positions with MAPQ>=10. […]

Structure (SMILES): O=C(O)Cc1c[nH]c2ccccc12 [auxin, indole-3-acetic acid]
- CTCF peaks called after auxin treatment also called before auxin treatment [1]: 96%
- Spearman's r of ChIP-Seq signal before vs after auxin treatment, CTCF ([1]; 5 kb bins genome-wide): 0.80
- average enrichment at all CTCF binding sites called by ENCODE, treated cells ([1]; untreated 10.89): 8.93
- collisions in the center voxel of the 3D APA cube (three cohesin-independent loop anchors) [2]: 11
